From patent US20240325363A1, “COMPOSITION FOR TREATMENT OF ANTICANCER AGENT-RESISTANT CANCER” (ONCOCROSS CO.,LTD., priority 2021, published 2024)

How the values were obtained:
[1] = tested on: KRAS; assay: KRAS mRNA expression by Endpoint PCR / qRT-PCR in cancer cell lines; type: cell-based, human; settings: for KRAS expression: HCT116 cells, comparison with other CDK inhibitors
Protocol: (§1) In order to confirm the effect of inhibiting KRAS expression by GW8510, a human colon cancer cell line HCT116 with a KRAS G13D mutation, a human prostate cancer cell line PC-3 with a KRAS G13D mutation, a human breast cancer cell line MCF7 as a KRAS wild-type cell line, a human pancreatic cancer cell line MIA PaCa-2 with a KRAS G12C mutation, and a human pancreatic cancer cell line PANC-1 with a KRAS G12D mutation were dispensed in a 6-well plate, and treated with GW8510 at 0, 1, 5 or 10 μM of concentration for 3, 6, 24 or 48 hours. Thereafter, RNA was extracted from the cells using a TRIzol™ Reagent (Thermo Fisher Scientific Inc., USA) and then cDNA was synthesized using M-MLV reverse-transcriptase (ELPIS Biotech, Korea), 2.5 mM dNTP (TransGen Biotech, China), and oligo dT15 (bioneer, Korea). Endpoint PCR was performed using an Endpoint PCR solution mixed with the synthesized cDNA, Taq polymerase master mix, and primers shown in Table 1 below, and a QuantStudio 3 Real-Time PCR Instrument (Thermo Fisher Scientific Inc., USA). Thereafter, the mRNA level of KRAS was confirmed by loading the Endpoint PCR solution on an agarose gel. In addition, the mRNA levels of nuclear transcription factor Y (NYFA) and X-linked inhibitor of apoptosis protein (XIAP) as a protein of inhibiting apoptosis, were also confirmed together with KRAS.
(§2) A colon cancer cell line HCT116 (KRAS G13D mut), pancreatic cancer cell lines PANC-1 (KRAS G12D mut) and MIA PaCa-2 (KRAS G12C mut), and a breast cancer cell line MCF7 (KRAS wt) were dispensed in a 6-well plate, and treated with GW8510 at 0, 1, 5 or 10 μM of concentration for 24 hours, and then Endpoint PCR was performed. In addition, a qRT-PCR solution was prepared by mixing SYBR Green Master Mix, the cDNA of Example 2-1, and the primers in Table 1, and qRT-PCR was performed with QuantStudio 3 Real-Time PCR Instrument (Thermo Fisher Scientific Inc., USA) to quantify the gene expression levels. In addition, the phenotypes of the cancer cell line were observed by treatment of GW8510 by using the colon cancer cell line HCT116 treated with GW8510 at 0 or 10 μM of concentration for 24 hours, and the protein expression levels of pan ras, K-ras, and β-actin were measured by immunoblot. Specifically, the colon cancer cell line HCT116 treated with GW8510 at 0 or 10 μM of concentration for 24 hours was lysed with an RIPA buffer (Curebio, Korea), and then the cell lysate was centrifuged and the supernatant was taken. The cell lysate supernatant was added with a 5×SDS sample buffer and then boiled for 10 minutes, and electrophoresis was performed using a 12% SDS polyacrylamide gel. After electrophoresis, a protein was transferred to a PVDF membrane and then blocked with 5% skim milk (TBS-T) at room temperature for 1 hour. Thereafter, primary antibodies (anti-pan ras, anti-K-ras, and anti-β-actin) diluted in a blocking solution at 1:1000 were added and incubated at 4° C. overnight, and then a membrane was washed three times with 0.05% TBS-T, and a secondary antibody (horseradish peroxidase-conjugated 2nd Ab) diluted at 1:10000 was added and incubated for 1 hour at room temperature. The membrane was washed three times with 0.05% TBS-T, developed with an enhanced chemiluminescence (ECL) solution, and exposed to an X-ray film.
(§3) To determine whether the inhibition of KRAS by GW8510 was regulated through Cdk2 inhibition, HCT116 cells were treated with other CDK inhibitors, such as PKC inhibitor H7, Cdk2 inhibitor CVT-313, and Cdk4/6 inhibitor PD0332991, other than GW8510 (Cdk2 inhibitor) for 24 hours, respectively, and then to analyze the cell cycle, the cells were subjected to PI staining and confirmed by flow cytometry, and the KRAS expression levels were confirmed by Endpoint PCR and qRT-PCR.

[2] = tested on: HCT116 cells; assay: Cell cycle analysis by PI staining and flow cytometry; type: cell-based, human; settings: 24 hours, PI staining flow cytometry
Protocol: as §3

[3] = tested on: NFYA; assay: NFYA mRNA expression by Endpoint PCR in cancer cell lines; type: cell-based, human
Protocol: as §1

[4] = tested on: XIAP; assay: XIAP mRNA expression by Endpoint PCR in cancer cell lines; type: cell-based, human
Protocol: as §1

[5] = tested on: KRAS; assay: KRAS protein expression by immunoblot; type: cell-based, human; settings: HCT116, GW8510 0 or 10 μM, 24 hours
Protocol: as §2, with “After electrophoresis, a protein was transferred to a PVDF membrane and then blocked with 5% skim milk (TBS-T) at room temperature for 1 hour. Thereafter, primary antibodies (anti-pan ras, anti-K-ras, and anti-β-actin) diluted in a blocking solution at 1:1000 were added and incubated at 4° C. overnight, and then a membrane was washed three times with 0.05% TBS-T, and a secondary antibody (horseradish peroxidase-conjugated 2nd Ab) diluted at 1:10000 was added and incubated for 1 hour at room temperature. The membrane was washed three times with 0.05% TBS-T, developed with an enhanced chemiluminescence (ECL) solution, and exposed to an X-ray film.” left out

[6] = tested on: HCT116 cells xenograft; assay: HCT116 xenograft model in nude mice, tumor size; type: in vivo, Balb/c nude mice; settings: GW8510 10 mg/kg i.p. three times a week, cetuximab 1 mg/mouse i.p. once a week
Protocol: Experimental animals used were 36 6-week-old Balb/c nude mice. The experimental diet and drinking water were taken freely, and all experimental diets were stored in a refrigerator during a breeding period. The mice were pre-bred with regular feed to be adapted to a breeding environment for 7 days before the start of the experiment and then divided into a total of 4 groups. […] In all mice, HCT116 cells were injected with 1×10^6 S.C. at 7 weeks of age to prepare a xenograft model. […] The tumor size was measured using Equation of (long axis×short axis×short axis)/2 and measured three times a week at the same time.

[7] = 24 hours, Endpoint PCR and qRT-PCR
[8] = all of the cell lines (HCT116, PC-3, MCF7, MIA PaCa-2, PANC-1)

COc1ccc(CNc2nc(N(CCO)CCO)nc3c2ncn3C(C)C)cc1 [CVT-313, reference compound]
KRAS expression [1, 7]: no change in KRAS expression | cell cycle [2]: arrested in the GO/G1 phase

O=C1Nc2ccc3ncsc3c2/C1=C/Nc1ccc(S(=O)(=O)Nc2ccccn2)cc1 [GW8510]
mRNA expression level of NFYA ([3]; HCT116 cells (KRAS G13D)): also decreased | mRNA level of NFYA [3, 8]: also decreased | KRAS transcription level ([1]; HCT116, PANC-1, MIA PaCa-2 and MCF7, GW8510 0, 1, 5 or 10 μM, 24 hours, Endpoint PCR and qRT-PCR): significantly reduced | KRAS expression [1, 7]: inhibited the KRAS expression | mRNA expression level of KRAS ([1]; HCT116 colon cancer cells (KRAS G13D), GW8510 0, 1, 5 or 10 μM, 3, 6, 24 or 48 hours, effect from 6 hours, Endpoint PCR): decreased in a concentration-dependent manner | KRAS mRNA level ([1]; MCF7 breast cancer cells (KRAS wild-type), Endpoint PCR): also reduced | KRAS mRNA level ([1]; MIA PaCa-2 pancreatic cancer cells (KRAS G12C), Endpoint PCR): decreased | KRAS mRNA level ([1]; PANC-1 pancreatic cancer cells (KRAS G12D), Endpoint PCR): decreased | KRAS mRNA level ([1]; PC-3 prostate cancer cells (KRAS G13D), Endpoint PCR): decreased | mRNA expression level of XIAP ([4]; HCT116 cells (KRAS G13D)): also decreased | mRNA level of XIAP [4, 8]: also decreased | KRAS protein level [5]: also decreased | tumor size [6]: tended to decrease compared to the control group

CC1CNCCN1S(=O)(=O)c1cccc2cnccc12 (stereo not shown) [H7, reference compound]
KRAS expression [1, 7]: no change in KRAS expression | cell cycle [2]: arrested in the GO/G1 phase

CC(=O)c1c(C)c2cnc(Nc3ccc(N4CCNCC4)cn3)nc2n(C2CCCC2)c1=O [PD0332991, reference compound]
KRAS expression [1, 7]: no change in KRAS expression | cell cycle [2]: arrested in the GO/G1 phase
